From ChEMBL document CHEMBL2034870, “Activity landscape modeling of PPAR ligands with dual-activity difference maps” (Bioorg Med Chem, 2012)

Columns and labels:
[1] = target: T1, Peroxisome proliferator-activated receptor delta (Homo sapiens, UniProt Q03181); assay type: functional
T1 sequence (Q03181 whole entry): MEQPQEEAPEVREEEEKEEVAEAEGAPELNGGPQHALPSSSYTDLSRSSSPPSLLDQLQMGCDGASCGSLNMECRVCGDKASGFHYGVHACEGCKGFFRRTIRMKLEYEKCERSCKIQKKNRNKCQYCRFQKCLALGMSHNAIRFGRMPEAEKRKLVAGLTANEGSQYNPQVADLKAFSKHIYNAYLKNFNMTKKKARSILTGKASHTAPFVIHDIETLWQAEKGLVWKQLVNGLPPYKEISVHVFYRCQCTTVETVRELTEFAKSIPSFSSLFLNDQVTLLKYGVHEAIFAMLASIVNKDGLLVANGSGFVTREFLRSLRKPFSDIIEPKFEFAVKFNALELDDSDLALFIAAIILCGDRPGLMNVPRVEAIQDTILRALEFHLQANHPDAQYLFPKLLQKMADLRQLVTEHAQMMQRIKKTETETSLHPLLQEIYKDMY

[2] = target: T2, Peroxisome proliferator-activated receptor alpha (Homo sapiens, UniProt Q07869); assay type: functional
T2 sequence (Q07869 whole entry): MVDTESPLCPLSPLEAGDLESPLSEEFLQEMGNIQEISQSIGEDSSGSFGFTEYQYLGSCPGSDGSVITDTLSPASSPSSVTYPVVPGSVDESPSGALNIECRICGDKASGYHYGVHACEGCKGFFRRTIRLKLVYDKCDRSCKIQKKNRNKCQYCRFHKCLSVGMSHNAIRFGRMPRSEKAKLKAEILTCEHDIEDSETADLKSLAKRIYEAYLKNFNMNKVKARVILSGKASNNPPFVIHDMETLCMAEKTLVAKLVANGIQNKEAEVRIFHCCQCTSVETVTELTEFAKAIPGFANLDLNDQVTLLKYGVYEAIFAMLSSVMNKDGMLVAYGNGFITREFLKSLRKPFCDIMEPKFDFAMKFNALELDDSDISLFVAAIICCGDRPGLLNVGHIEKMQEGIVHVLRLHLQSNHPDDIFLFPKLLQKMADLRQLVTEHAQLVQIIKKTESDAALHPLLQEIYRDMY

Structure (SMILES)	IC50 ([1]; read-out: IC50) [nM]	IC50 ([2]; read-out: IC50) [nM]	IC50 ([1]; read-out: pIC50 (converted)) [nM]	IC50 ([2]; read-out: pIC50 (converted)) [nM]
O=C(O)[C@@H]1CCc2ccc(OCCCOc3ccc(OCC(F)(F)F)cc3Cl)cc2O1	6900	810		
CCCc1cc(-c2noc3ccccc23)ccc1OCCCOc1cccc([C@@H]2SC(=O)NC2=O)c1			140	
Cc1oc(-c2ccccc2)nc1CCOc1ccc(C[C@H](Oc2ccccc2)C(=O)O)cc1	7040	1110		
CCCc1cc(Oc2ccc(O)cc2)ccc1OCCCOc1cccc([C@@H]2SC(=O)NC2=O)c1	3800			
CCO[C@H](Cc1ccc2c(c1)cc(C)n2Cc1nc(-c2ccc(C(F)(F)F)cc2)oc1C)C(=O)O			372	352
CCCc1cc(-c2ccccc2)ccc1OCCCOc1cccc([C@@H]2OC(=O)NC2=O)c1			1510	
CCO[C@@H](Cc1cccc2c1ccn2Cc1nc(-c2ccccc2)oc1C)C(=O)O			3500	125
CCCO[C@H](Cc1ccc2c(ccn2Cc2nc(-c3ccc(C(F)(F)F)cc3)oc2C)c1)C(=O)O				40
CCCn1c(CCCc2ccc(OC(C)(C)C(=O)O)cc2)nn([C@H](C)c2ccccc2)c1=O			1500	220
O=C1NC(=O)[C@H](c2cccc(OCCCOc3ccc(Oc4ccccc4)cc3)c2)S1			190	
CC(C)Cc1cc(Oc2ccccc2)ccc1OCCCOc1ccc([C@@H]2SC(=O)NC2=O)cc1	160	340		
CCCC[C@@](Cc1ccc(OCCc2nc(-c3ccccc3)oc2C)cc1)(Oc1ccccc1)C(=O)O	7230	1850		
CCCc1cc(C2CCCC2)ccc1OCCCOc1cccc([C@H]2OC(=O)NC2=O)c1			3850	
CCCc1cc(OC2CCCC2)ccc1OCCCOc1cccc([C@@H]2SC(=O)NC2=O)c1			920	
CC[C@@](Cc1ccc(OCCc2nc(-c3ccccc3)oc2C)cc1)(Oc1ccccc1)C(=O)O			5070	473
CCCc1cc(C(=O)c2ccccc2)ccc1OCCCOc1cccc([C@@H]2SC(=O)NC2=O)c1			170	
CCCc1c(OCCCSc2ccc(CC(=O)O)cc2Cl)ccc(/C(CC)=N\O)c1O			10	100
Cc1oc(-c2ccc(C(F)(F)F)cc2)nc1Cn1ccc2cc(C[C@@H](OC(C)C)C(=O)O)ccc21			891	61
